The SangsterLogP compilation

test: method code SF-AS, from DOI: 10.1016/s0045-6535(98)00132-5, PMID: 9753760

| Compound | logP |
| --- | --- |
| CCOc1ccccc1NC(=O)c1cc([N+](=O)[O-])ccc1O | 2.34 |
| Cc1ccc(Cl)cc1NC(=O)c1cc([N+](=O)[O-])ccc1O | 2.61 |
| COc1ccc(NC(=O)c2cccc([N+](=O)[O-])c2O)cc1 | 1.83 |
| Cc1c(Cl)cccc1NC(=O)c1cccc([N+](=O)[O-])c1O | 2.32 |
| Cc1c(Cl)cccc1NC(=O)c1cc([N+](=O)[O-])ccc1O | 2.64 |
| CCOc1ccccc1NC(=O)c1cccc([N+](=O)[O-])c1O | 2.04 |
| Cc1ccc(Cl)cc1NC(=O)c1cccc([N+](=O)[O-])c1O | 2.24 |
| CCOc1ccc(NC(=O)c2cccc([N+](=O)[O-])c2O)cc1 | 1.98 |
| Cc1ccccc1NC(=O)c1cccc([N+](=O)[O-])c1O | 1.9 |
| Cc1ccc(NC(=O)c2cccc([N+](=O)[O-])c2O)cc1 | 1.94 |
| O=C(Nc1ccc(Cl)cc1)c1cccc([N+](=O)[O-])c1O | 2.16 |
| Cc1ccc(NC(=O)c2cc([N+](=O)[O-])ccc2O)cc1 | 2.22 |
| O=C(Nc1ccc(Cl)cc1)c1cc([N+](=O)[O-])ccc1O | 2.54 |
| COc1ccc(NC(=O)c2cc([N+](=O)[O-])ccc2O)cc1 | 2.19 |
